{
  "source": "patent US20140288071A1",
  "about": "“INHIBITORS OF NOTUM […] AND METHODS OF THEIR USE” (priority 2011, published 2014)",
  "key": {"[1]": {"tested_on": "F1 male hybrid (129×C57) mice", "experiment": "Midshaft femur cortical thickness by microCT in treated mice", "assay_type": "in vivo", "conditions": "for increase in midshaft femur cortical thickness: second study", "experimental": "The compound was administered in the animals' diet. Four groups of mice were used: control (N=12); 25 mg/kg compound (N=9); 83 mg/kg compound (N=9); and an additional group wherein Li2CO3 was administered in the diet (0.1%) (N=9).\nMidshaft femur cortical thickness was measured using a Scanco μCT40. […] For the Li2CO3 group, a decrease in cortical bone thickness of 2% (p=0.90) was observed. […]\nMidshaft femur cortical thickness was measured by microCT (Scanco μCT40). […]"}, "[2]": {"molecular_target": "T1, human notum pectinacetyltransferase (Homo sapiens, UniProt Q6P988)", "T1 construct": "made in house; conditioned medium used", "T1 sequence (Q6P988 20-496)": "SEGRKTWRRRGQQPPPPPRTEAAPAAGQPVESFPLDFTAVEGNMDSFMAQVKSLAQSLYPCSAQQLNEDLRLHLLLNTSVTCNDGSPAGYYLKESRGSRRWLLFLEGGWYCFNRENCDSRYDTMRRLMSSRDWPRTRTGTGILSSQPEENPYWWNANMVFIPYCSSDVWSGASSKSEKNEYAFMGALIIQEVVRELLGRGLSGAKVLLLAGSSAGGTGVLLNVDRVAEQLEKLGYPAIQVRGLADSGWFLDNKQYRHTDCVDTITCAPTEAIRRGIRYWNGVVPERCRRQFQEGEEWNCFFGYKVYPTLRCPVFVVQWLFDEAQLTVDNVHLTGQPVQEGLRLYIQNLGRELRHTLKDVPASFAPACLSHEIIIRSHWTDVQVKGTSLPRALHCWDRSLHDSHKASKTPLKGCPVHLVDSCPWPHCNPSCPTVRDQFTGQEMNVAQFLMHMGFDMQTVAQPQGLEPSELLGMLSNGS", "experiment": "Binding assay (OPTS esterase substrate, fluorimetric)", "assay_type": "biochemical", "conditions": "OPTS substrate 5 μM", "experimental": "Plasmid containing human notum pectinacetyltransferase in pcDNA3.1(+) vector was transfected into HEK293 cells and clones were selecting by growing in presence of 400 ug/mL of G418. Condition media from these cells was used for the assay."}, "[3]": {"molecular_target": "T1, human notum pectinacetyltransferase", "experiment": "Reporter assay (CellSensor LEF/TCF-bla FreeStyle 293F cells, Wnt3a and notum conditioned media)", "assay_type": "cell-based", "experimental": "Plasmid containing human notum pectinacetyltransferase in pcDNA3.1(+) vector was transfected into HEK293 cells and clones were selecting by growing in presence of 400 ug/mL of G418. […] L cells overexpressing and secreting Wnt3a into the conditioned media were purchased from ATCC.\nThe assay protocol was as follows. […] The cell growth medium consisted of DMEM with 10% Dialyzed FBS, 5 μg/ml Blasticidin (Invitrogen, R210-01), 0.1 mM NEAA, 25 mM HEPES and 1×GPS. Cells were then trypsinized by first rinsing with PBS, followed by addition of 5 mL of trypsin and incubation of plates at room temperature for two minutes. A total of 10 mL of assay media (Opti-MEM, plus 0.5% dialyzed FBS, 0.1 mM NEAA, 1 mM sodium pyruvate, 10 mM HEPES, 1×GPS) was then added per 15 cm plate. Cells were counted and suspended at 0.75 million cells per mL. […] After incubation of cells at 37° C. for 3 hours, 10 μL of 30 mM LiCl in assay medium was added per well, followed by incubation at 37° C. for another 3 hours. […] Ten μL of the Wnt3a/notum pentinacetyltransferase mixture was then transferred from Greiner plates to each well of the 384-well plates containing the CellSensor cells. After incubation of cells overnight at 37° C., reactions were developed by addition of […] of 1×CCF4 (Invitrogen, Catalogue number K1085) to each well, covering the entire 384-well plate, and gentle rocking in the dark at room temperature for 3 hours."}, "[4]": {"tested_on": "Fischer 344 ovariectomized rats", "experiment": "Midshaft femur and tibia cortical thickness by microCT in sham and ovariectomized rats", "assay_type": "in vivo", "conditions": "target dose 30 mg/kg in diet, five weeks, ANOVA p=0.05 for treatment", "source_text": "The pharmacology of 2-((5-chloro-6-methylthieno[2,3-d]pyrimidin-4-yl)thio)acetic acid was studied in Fischer 344 ovariectomized rats. The rats underwent ovariectomies or sham surgery at 43 or 46 weeks of age, and treatment with the compound started at 37 or 40 weeks thereafter, at 83 weeks of age.\nFour treatment groups were used: sham-surgery given control diet (N=14); sham-surgery given compound (N=12); OVX-surgery given control diet (N=14); and OVX-surgery given compound (N=12). The compound was dosed by incorporating it into the rats' diet: 0.46 grams of compound per kg of diet. The target dose was 30 mg/kg. Dosing occurred for five weeks.\nBone mass and architecture was determined by microCT, using a Scanco μCT40. […] The difference between the cortical bone thicknesses of the sham control and OVX control was −13%. Two-factor ANOVA values were: p<0.001 for OVX surgery; p=0.05 for treatment; and p=0.65 for interaction.\nTwo-factor ANOVA values were: p=0.79 for OVX surgery; p=0.05 for treatment; and p=0.52 for interaction."}},
  "data": [
    {"smiles": "Cc1sc2ncnc(SCC(=O)O)c2c1C", "note": "[2-((5,6-dimethylthieno[2,3-d]pyrimidin-4-yl)thio)acetic acid]", "values": [
      {"measurement": "increase in cortical bone thickness (midshaft femur) compared to control", "setting": "[1]; first study, 25 mg/kg in diet, 25 days, starting at 10.7 weeks of age, p=0.04", "value": 9, "unit": "%"},
      {"measurement": "increase in cortical bone thickness (midshaft femur) compared to control", "setting": "[1]; first study, 83 mg/kg in diet, 25 days, starting at 10.7 weeks of age, p=0.07", "value": 8, "unit": "%"},
      {"measurement": "increase in midshaft femur cortical thickness", "setting": "[1]; 8 mg/kg in diet, 25 days, starting at 10.7 weeks of age, p=0.19", "value": 4, "unit": "%"},
      {"measurement": "increase in midshaft femur cortical thickness", "setting": "[1]; 24 mg/kg in diet, 25 days, starting at 10.7 weeks of age, p=0.05", "value": 6, "unit": "%"}
    ]},
    {"smiles": "CC(C)c1sc2ncnc(SCC(=O)O)c2c1Cl", "note": "[2-((5-chloro-6-isopropylthieno[2,3-d]pyrimidin-4-yl)thio)acetic acid]", "values": [
      {"measurement": "IC50", "setting": "[2]", "value": "< 25", "unit": "nM"},
      {"measurement": "EC50", "setting": "[3]", "value": "< 1000", "unit": "nM"},
      {"measurement": "increase in cortical bone thickness (midshaft femur) compared to control", "setting": "[1]; 5 mg/kg twice daily oral gavage, 25 days, starting at 8.7 weeks of age, p=0.002", "value": 6, "unit": "%"},
      {"measurement": "increase in cortical bone thickness (midshaft femur) compared to control", "setting": "[1]; 10 mg/kg twice daily oral gavage, 25 days, starting at 8.7 weeks of age, p=0.007", "value": 5, "unit": "%"},
      {"measurement": "increase in cortical bone thickness (midshaft femur) compared to control", "setting": "[1]; 15 mg/kg twice daily oral gavage, 25 days, starting at 8.7 weeks of age, p=0.001", "value": 6, "unit": "%"}
    ]},
    {"smiles": "Cc1sc2ncnc(SCC(=O)O)c2c1Cl", "note": "[2-((5-chloro-6-methylthieno[2,3-d]pyrimidin-4-yl)thio)acetic acid]", "values": [
      {"measurement": "IC50", "setting": "[2]", "value": "< 25", "unit": "nM"},
      {"measurement": "EC50", "setting": "[3]", "value": "< 1000", "unit": "nM"},
      {"measurement": "increase in midshaft femur cortical bone thickness", "setting": "[4]; intact (sham) rats", "value": 3, "unit": "%"},
      {"measurement": "increase in midshaft tibia cortical thickness", "setting": "[4]; intact (sham) rats", "value": 2, "unit": "%"},
      {"measurement": "increase in midshaft femur cortical bone thickness", "setting": "[4]; ovariectomized rats", "value": 5, "unit": "%"},
      {"measurement": "increase in midshaft tibia cortical thickness", "setting": "[4]; ovariectomized rats", "value": 5, "unit": "%"}
    ]},
    {"smiles": "O=C(O)CSc1ncnc2c(C3CC3)c(Cl)sc12", "note": "[2-((6-chloro-7-cyclopropylthieno[3,2-d]pyrimidin-4-yl)thio)acetic acid]", "values": [
      {"measurement": "increase in cortical bone thickness (midshaft femur) compared to control", "setting": "[1]; 3 mg/kg daily oral gavage, 25 days, starting at 8.7 weeks of age, p=0.003", "value": 7, "unit": "%"},
      {"measurement": "increase in cortical bone thickness (midshaft femur) compared to control", "setting": "[1]; 10 mg/kg daily oral gavage, 25 days, starting at 8.7 weeks of age, p<0.001", "value": 10, "unit": "%"},
      {"measurement": "increase in cortical bone thickness (midshaft femur) compared to control", "setting": "[1]; 30 mg/kg daily oral gavage, 25 days, starting at 8.7 weeks of age, p<0.001", "value": 13, "unit": "%"}
    ]},
    {"smiles": "Cc1c(Cl)sc2c(SCC(=O)O)ncnc12", "note": "[2-((6-chloro-7-methylthieno[3,2-d]pyrimidin-4-yl)thio)acetic acid]", "values": [
      {"measurement": "IC50", "setting": "[2]", "value": "< 25", "unit": "nM"},
      {"measurement": "EC50", "setting": "[3]", "value": "< 1000", "unit": "nM"},
      {"measurement": "increase in midshaft femur cortical bone thickness compared to control", "setting": "[1]; first experiment, 10 mg/kg daily oral gavage, 25 days, starting at 54 weeks of age, p=0.06", "value": 6, "unit": "%"},
      {"measurement": "increase in midshaft femur cortical bone thickness compared to control", "setting": "[1]; first experiment, 100 mg/kg daily oral gavage, 25 days, starting at 54 weeks of age, p=0.03", "value": 7, "unit": "%"},
      {"measurement": "increase in midshaft femur cortical bone thickness compared to control", "setting": "[1]; second experiment, 34 mg/kg in diet, 18 days, starting at 8.1 weeks of age, p<0.01", "value": 10, "unit": "%"},
      {"measurement": "increase in midshaft femur cortical bone thickness compared to control", "setting": "[1]; second experiment, 34 mg/kg in diet, seven days, starting at 8.1 weeks of age, p=0.13", "value": 6, "unit": "%"}
    ]},
    {"smiles": "O=C([O-])[O-].[Li+].[Li+]", "note": "[Li2CO3, reference compound]", "values": [
      {"measurement": "decrease in cortical bone thickness (midshaft femur) compared to control", "setting": "[1]; first study, 0.1% in diet, 25 days, p=0.90", "value": 2, "unit": "%"}
    ]}
  ]
}
